Test results reported in PMC13415800 (Pharmaceutics, 2026).
Entries after “also recorded” stand apart in the source; their conditions may differ.

Legend:
ZIKV (MR766, Uganda) = type: cell-based, Zika virus; conditions: Vero E6; ZIKV MOI 1; five days; highest concentration without cytotoxicity (MCC)
Vero E6 cell line [1] = conditions: compound concentration producing minimal changes in cell morphology, estimated by microscopy
Vero E6 cell line [2] = conditions: for CC50: MTT
ZIKV [3] = assay: Virion destabilization assay (RNase A, qRT-PCR); type: biochemical, Zika virus; conditions: 50 µM, 1 h, 37 °C, then RNase A
Vero E6 cells = assay: Phospholipidosis assay (LipidTOX Deep Red); type: cell-based, African green monkey (Cercopithecus aethiops); conditions: 48 h
Procedure: Vero E6 cells were seeded in 96-well plates and treated with compound 7 at the indicated concentrations for 48 h. Propranolol (30 µM) was used as a positive control and DMSO as vehicle control. Phospholipid accumulation was detected using LipidTOX™ Deep Red phospholipidosis stain (Thermo Fisher Scientific, Waltham, MA, USA, H34158) according to the manufacturer’s instructions. Nuclei were counterstained with Hoechst 33342. Representative images were acquired by confocal microscopy.

ZIKV [4] = assay: Time of drug addition assay (qRT-PCR); type: cell-based, Zika virus; conditions: Vero E6, MOI 1, 50 µM, 24 h pi
Procedure: Vero E6 cells were seeded on 96-well plates at 3.5 × 10^4 well and incubated (37 °C, 5% CO2) overnight. The cells were infected for 1 h with MOI of 1. Cells were treated with 50 µM of compound 7. Cells were treated at three different times: 1 h before infection, concurrently with the infection, and one hour post-infection. After the infection, the supernatant was discarded and the cells were incubated for 24 h with the media, then RNA was isolated from the supernatant and quantified using qRT-PCR (see below).
(§1) For viral RNA isolation, the Total RNA Miniprep Kit (New England Biolabs, Ipswich, USA) was used, following the manufacturer’s instruction. After RNA elution, samples were stored at −80 °C until use. For the determination of viral RNA quantity, we used the Luna® Universal Probe One-Step RT-qPCR Kit (New England Biolabs, Ipswich, MA, USA). The primers used were ZIKV_NS1_F: […], ZIKV_NS1_R: […], and the probe was FAM-5′-CCC GCA GAT-3′ /ZEN/ 5′-TGG CAG CAG-3′-BHQ1. […]
We divided the samples into five groups based on the timing of treatment: no-treatment (ZIKV), pre-treatment for 1 h (pre), co-treatment (co), post-treatment for 1 h (post), and full treatment (full) (Figure 3A). Twenty-four hours post-infection (pi), we isolated viral RNA from the supernatant and quantified it using qRT-PCR. […]

ZIKV [5] = assay: Entry assay (qRT-PCR); type: cell-based, Zika virus; conditions: Vero E6; MOI 1; infection 1 h 4 °C, then 50 µM 1 h 37 °C
Procedure: (§2) Vero E6 cells were seeded on 96 well plate 3.5 × 10^4 well and incubated (37 °C, 5% CO2) overnight. 1 h before the infection we put the cells at 4 °C. During the entry assay cells were infected for 1 h at 4 °C and MOI of 1, then washed twice with PBS. Afterward, they were treated with 50 µM of compound 7, lasting for 1 h (37 °C, 5% CO2). During the binding assay the cells were infected as before for 1 h at 4 °C and at the same time treated with 50 µM of compound 7. Following both of the treatments, the cells were washed once with PBS, then RNA was isolated from the cells. Viral RNA was quantified using qRT-PCR (see below). This assay was developed based on the methods established by Lu et al..
as §1
(§3) To gain a more precise understanding of the mechanism of action of compound 7, binding and entry assays were performed. […] After incubation, cells were washed with PBS prior to RNA extraction, and viral RNA levels were quantified by qRT-PCR.

ZIKV [6] = assay: Binding assay (qRT-PCR); type: cell-based, Zika virus; conditions: Vero E6; MOI 1; 50 µM; 1 h at 4 °C
Procedure: as §2, §1, §3

ZIKV [7] = assay: Liposome-based capsid protection assay (virus–liposome fusion); type: biochemical, Zika virus; conditions: trypsin-containing liposomes; pH 5.3; 10, 50 μM
ZIKV [8] = assay: Virion inactivation assay (cell-free pre-incubation, plaque assay); type: cell-based, Zika virus
CHIKV (Guatemala) = assay: CPE inhibition assay, CHIKV on Vero E6; type: cell-based, chikungunya virus; conditions: MOI 0.1, 3 days, MTT
[9] = system: SARS-CoV-2 (B.1.5 (G) isolate, Hungarian); type: cell-based, severe acute respiratory syndrome coronavirus 2; conditions: Vero E6, 3 days, MTT

| Compound | cytopathic effects (microscopy) (ZIKV (MR766, Uganda)) | MCC (Vero E6 cell line [1]) [µM] | CC50 (Vero E6 cell line [2]) [µM] | further results |
| --- | --- | --- | --- | --- |
| CC(=O)N[C@H]1[C@H](O[C@@H]2c3ccc(c(Cl)c3)Oc3cc4cc(c3O)Oc3ccc(cc3Cl)C[C@H]3NC(=O)[C@H](n5cc(COCCOCCCC(F)(F)C(F)(F)C(F)(F)C(F)(F)C(F)(F)C(F)(F)F)nn5)c5ccc(O)c(c5)Oc5cc(O)cc(c5)[C@H](NC3=O)C(=O)N[C@H]4C(=O)N[C@H]3C(=O)N[C@@H]2C(=O)N[C@H](C(=O)O)c2cc(O)cc(O)c2-c2cc3ccc2O)O[C@H](CO)[C@@H](O)[C@@H]1O [Compound 2] | we did not observed any CPE; also recorded: No cytopathic effects were observed | >40 | 195 | – |
| COC(=O)C1NC(=O)C2NC(=O)C(NC(=O)C3NC(=O)C4NC(=O)C(NC(=O)C(NC(=O)CCC(F)(F)C(F)(F)C(F)(F)C(F)(F)C(F)(F)C(F)(F)C(F)(F)C(F)(F)F)c5ccc(O)c(c5)Oc5cc4cc(O)c5C)C(O)c4ccc(cc4)Oc4cc3cc(c4O)Oc3ccc(cc3)C2O)c2ccc(O)c(c2)-c2c(O)cc(O)cc21 (stereo not drawn) [Compound 8] | – | >20 | 62.6 | cytotoxic effects (in words) (Vero E6 cell line [2]): slightly cytotoxic |
| CC(=O)NC1C(OC2c3ccc(c(Cl)c3)Oc3cc4cc(c3O)Oc3ccc(cc3Cl)CC3NC(=O)C(NC(=O)CCC(F)(F)C(F)(F)C(F)(F)C(F)(F)C(F)(F)C(F)(F)F)c5ccc(O)c(c5)Oc5cc(O)cc(c5)C(NC3=O)C(=O)NC4C(=O)NC3C(=O)NC2C(=O)NC(C(=O)O)c2cc(O)cc(O)c2-c2cc3ccc2O)OC(CO)C(O)C1O (stereo not drawn) [Compound 7] | No cytopathic effects were observed | >60 | 203 | viral RNA copy number vs negative control (virion integrity) (ZIKV [3]): No significant reduction; concentration from which phospholipidosis is detectable (Vero E6 cells): ≥ 2500 nM; phospholipidosis response (Vero E6 cells; positive control propranolol 30 µM): weak phospholipidosis response; viral RNA level vs no-treatment, pre-treatment (before infection) (ZIKV [4]; 1 h before infection): No significant inhibition; viral RNA level vs no-treatment, post-treatment (after viral entry) (ZIKV [4]; 1 h post-infection): No significant inhibition; viral RNA level, entry assay, treated vs control (ZIKV [5]): No significant differences; viral RNA level, binding assay, treated vs control (ZIKV [6]): No significant differences; capsid protein signal under low-pH fusion conditions (Western blot) (ZIKV [7]): preserved the capsid signal; reduction of viral titer vs untreated control (ZIKV [8]): approximately one order of magnitude |
| CC(=O)N[C@H]1[C@H](O[C@@H]2c3ccc(c(Cl)c3)Oc3cc4cc(c3O)Oc3ccc(cc3Cl)C[C@H]3NC(=O)[C@H](NC(=O)CCC(F)(F)C(F)(F)C(F)(F)C(F)(F)C(F)(F)C(F)(F)C(F)(F)C(F)(F)F)c5ccc(O)c(c5)Oc5cc(O)cc(c5)[C@H](NC3=O)C(=O)N[C@H]4C(=O)N[C@H]3C(=O)N[C@@H]2C(=O)N[C@H](C(=O)O)c2cc(O)cc(O)c2-c2cc3ccc2O)O[C@H](CO)[C@@H](O)[C@@H]1O [Compound 6] | we did not observed any CPE; also recorded: No cytopathic effects were observed | >60 | 175 | – |
| CC(=O)N[C@H]1[C@H](O[C@@H]2c3ccc(c(Cl)c3)Oc3cc4cc(c3O)Oc3ccc(cc3Cl)C[C@H]3NC(=O)[C@H](n5cc(COCCOCCCC(F)(F)C(F)(F)C(F)(F)C(F)(F)C(F)(F)C(F)(F)C(F)(F)C(F)(F)F)nn5)c5ccc(O)c(c5)Oc5cc(O)cc(c5)[C@H](NC3=O)C(=O)N[C@H]4C(=O)N[C@H]3C(=O)N[C@@H]2C(=O)N[C@H](C(=O)O)c2cc(O)cc(O)c2-c2cc3ccc2O)O[C@H](CO)[C@@H](O)[C@@H]1O [Compound 1] | – | >50 | 149 | – |
| Teicoplanin [reference compound] | – | >60 | 280 | EC50 (CHIKV (Guatemala)): 86.2 µM; EC50 [9]: 33.9 µM |
| CC(=O)N[C@H]1[C@H](O[C@@H]2c3ccc(c(Cl)c3)Oc3cc4cc(c3O)Oc3ccc(cc3Cl)C[C@H]3NC(=O)[C@H](n5cc(COCCOCCCC(F)(F)C(F)(F)C(F)(F)C(F)(F)F)nn5)c5ccc(O)c(c5)Oc5cc(O)cc(c5)[C@H](NC3=O)C(=O)N[C@H]4C(=O)N[C@H]3C(=O)N[C@@H]2C(=O)N[C@H](C(=O)O)c2cc(O)cc(O)c2-c2cc3ccc2O)O[C@H](CO)[C@@H](O)[C@@H]1O [Compound 3] | we did not observed any CPE; also recorded: No cytopathic effects were observed | >50 | 198 | – |
